Results reported in patent publication US20100056522A1, “INTRAOCULAR PRESSURE-LOWERING AGENT COMPRISING COMPOUND HAVING HISTONE DEACETYLASE INHIBITOR EFFECT AS ACTIVE INGREDIENT” (Santen Pharmaceutical Co., Ltd., priority 2007, published 2010).

Assays:
[1] = system: TM-1 cells (human trabecular meshwork cell line); test: Test for evaluation of effect of morphological change on trabecular meshwork cells (cell shape index); assay type: cell-based; details: 10 μM, 24 hours, control CSI 0.679, lower CSI indicates greater morphological change
Description: As a method for evaluating a cellular morphological change, an evaluation system using the cell shape index (hereinafter referred to as “CSI”) as an index has been reported in The Journal of Clinical Investigation, 103, 1141-1150 (1999). Therefore, according to the method described in the above document, an effect of morphological change by the present compounds on trabecular meshwork cells was evaluated.
A human trabecular meshwork cell line (hereinafter referred to as “TM-1 cells”) reported in Investigative Opthalmology & Visual Science, 43, 151-161 (2002) was used.
Culture medium 1: A reagent was prepared by adding fetal bovine serum (10%), L-glutamine (2 mM), amphotericin B (2.5 μg/mL), and gentamicin (25 μg/mL) to Dulbecco's Modified Eagle Medium (hereinafter referred to as “D-MEM”).
Culture medium 2: Fetal bovine serum (3%), L-glutamine (2 mM), amphotericin B (2.5 μg/mL), and gentamicin (25 μg/mL) were added to D-MEM.
Cell staining liquid: A mixed liquid of Calcein-AM (16 μM) and Hoechst 33342 (40 μM) was prepared by diluting a Calcein-AM solution (cytoplasmic staining reagent, manufactured by Dojindo Laboratories) and a Hoechst 33342 solution (nuclear staining reagent, manufactured by Dojindo Laboratories) with D-MEM containing L-glutamine (2 mM), amphotericin B (2.5 μg/mL), and gentamicin (25 μg/mL).
TM-1 cells subcultured at 37° C. in a 8% carbon dioxide gas atmosphere were treated with a trypsin/EDTA solution (0.05% trypsin and 0.53 mM tetrasodium ethylenediaminetetraacetate) at 24 hours before performing a drug treatment mentioned below and seeded on a 96-well culture plate. The culture medium 1 was used for the subculture of the cells. The culture medium 2 was used for the cell culture after seeding the cells on the plate.
A test compound was dissolved in dimethyl sulfoxide, whereby a 5 mM solution was prepared. Then, the resulting solution was diluted with the culture medium 2, whereby a 200 μM test compound solution was prepared.
It has been reported that Y-27632 which is a Rho kinase inhibitor induces a morphological change in trabecular meshwork cells in Investigative Opthalmology & Visual Science, 42, 137-144 (2001). Therefore, Y-27632 (produced according to the method described in WO 90/05723) was used as a positive control, and dissolved in dimethyl sulfoxide in the same manner as the test compound, whereby a 5 mM solution was prepared, and then, the resulting solution was diluted with the culture medium 2, whereby a 200 μM positive control compound solution was prepared.
1) To a 96-well culture plate, a solution of TM-1 cells adjusted to a cell density of […] was added in an amount of 95 μL (1.5×10^4 cells) per well.
2) Incubation was performed at 37° C. in a 8% carbon dioxide gas atmosphere for 24 hours.
3) The test compound solution or positive control compound solution was added in an amount of 5 μL per well (the final concentration of the test compound or positive control compound was 10 μM). As a control, the culture medium 2 containing dimethyl sulfoxide (4%) was added in an amount of 5 μL per well.
4) Incubation was performed at 37° C. in a 8% carbon dioxide gas atmosphere for 24 hours.
5) The cell staining liquid was added in an amount of 10 μL per well.
6) Incubation was performed at 37° C. in a 8% carbon dioxide gas atmosphere for 1 hour to stain the cells.
7) A 37% formaldehyde solution was added in an amount of 10 μL per well.
8) Incubation was performed at room temperature for 1 hour to fix the cells.
9) Washing with phosphate-buffered saline was performed.
10) Using Array Scan Vti HCS reader (manufactured by Cellomics), images of stained cells magnified with a 20-fold objective lens were captured in 80 fields (10 fields×8 wells) per test compound addition group.
11) CSI was calculated for each cell and an average value was obtained for each test compound addition group.
CSI was calculated using the following equation.
CSI=4π×(Cell Area)/(Cell Perimeter)^2

[2] = system: HDAC (HeLa nuclear extract); test: Test for evaluation of an HDAC inhibitory effect (HDAC Fluorimetric Assay/Drug Discovery Kit, Biomol); assay type: biochemical; details: final concentration of test compound 30 μM, rates of more than 100% are shown as 100%
Description: Using HDAC Fluorimetric Assay/Drug Discovery Kit (manufactured by Biomol), an HDAC inhibitory effect of the present compounds was measured according to the protocol included with the kit. The kit contains Buffer, HeLa nuclear extract (includes an HDAC), Substrate, Developer and Trichostatin A (an HDAC inhibitor).
A test compound was dissolved in dimethyl sulfoxide, whereby a 2 mg/mL solution was prepared. Then, the resulting solution was diluted with Buffer containing 5% dimethyl sulfoxide, whereby a 150 μM test compound solution was prepared.
1) To a 384-well culture plate, the test compound solution was added in an amount of 2 μL per well.
2) HeLa nuclear extract was diluted 30-fold with Buffer. The resulting solution was added in an amount of 3 μL per well and then, incubation was performed at 37° C. for 2 hours.
3) Substrate was diluted 500-fold with Buffer. The resulting solution was added in an amount of 5 μL per well (the final concentration of the test compound was 30 μM) and then, incubation was performed at 37° C. for 10 minutes.
4) Developer was diluted 20-fold with Buffer and Trichostatin A (2 μM) was added to it. The resulting solution was added in an amount of 10 μL per well and then, incubation was performed at room temperature for 15 minutes.
5) The fluorescence intensity of each well was measured using multilabel counter ARVO (manufactured by Wallac) with excitation at 360 nm and emission at 460 nm.
6) A control data was obtained from the same experiment except that Buffer containing 5% DMSO was added instead of the test compound solution as the above-mentioned procedure from 1) to 5).
7) A blank data was obtained from the same experiment except that Buffer containing 5% DMSO was added instead of the test compound solution and that Buffer was added instead of Hela nuclear extract as the above-mentioned procedure from 1) to 5).
Enzyme inhibitory rate (%) was calculated using the following equation.
(Enzyme Inhibitory Rate(%))=100×[1−{(Fluorescence Intensity of Test Compound Solution)−(Florescence Intensity of Blank)}/{(Florescence Intensity of Control)−(Florescence Intensity of Blank)}]

## CN(C)CCN(Cc1ccc(C(=O)Nc2ccccc2N)nc1)C(=O)Nc1ccsc1 [Compound 1-56, N-(2-Aminophenyl)-5-[1-(2-dimethylaminoethyl)-3-(thiophen-3-yl)ureidomethyl]pyridine-2-carboxylic acid amide]
[1]
  CSI: 0.526
[2]
  Enzyme Inhibitory Rate (%): 97%

## COc1ccc2nc(NC(=O)N(CCCN(C)C)Cc3ccc(C(=O)Nc4ccccc4N)nc3)sc2c1 [Compound 1-42, N-(2-Aminophenyl)-5-[1-(3-dimethylaminopropyl)-3-(6-methoxy-1,3-benzothiazol-2-yl)ureidomethyl]pyridine-2-carboxylic acid amide]
[1]
  CSI: 0.536
[2]
  Enzyme Inhibitory Rate (%): 98%

## CN(C)CCN(Cc1ccc(C(=O)Nc2ccccc2N)nc1)C(=O)Nc1ccc2c(c1)OCCO2 [Compound 1-53, N-(2-Aminophenyl)-5-[3-(2,3-dihydrobenzo[1,4]dioxin-6-yl)-1-(2-dimethylaminoethyl)ureidomethyl]pyridine-2-carboxylic acid amide]
[1]
  CSI: 0.502
[2]
  Enzyme Inhibitory Rate (%): 98%

## Nc1ccccc1NC(=O)c1ccc(CN(CCCO)C(=O)Nc2ccc3c(c2)OCO3)cn1 [Compound 1-25, N-(2-Aminophenyl)-5-[3-(benzo[1,3]dioxol-5-yl)-1-(3-hydroxypropyl)ureidomethyl]pyridine-2-carboxylic acid amide]
[1]
  CSI: 0.571
[2]
  Enzyme Inhibitory Rate (%): 97%

## Cc1ccc(C(=O)c2cc(/C=C/C(=O)NO)n(C)c2)cc1 [MC1293, (E)-N-Hydroxy-3-[1-methyl-4-(4-methylbenzoyl)-1H-pyrrol-2-yl]-2-propenamide, reference compound]
[1]
  CSI: 0.628
[2]
  Enzyme Inhibitory Rate (%): 65%

## Nc1ccccc1NC(=O)c1ccc(CN(CCCN2CCOCC2)C(=O)NCCc2ccccc2)cn1 [Compound 1-3, N-(2-Aminophenyl)-5-[1-[3-(morpholin-4-yl)propyl]-3-phenethylureidomethyl]pyridine-2-carboxylic acid amide]
[1]
  CSI: 0.569
[2]
  Enzyme Inhibitory Rate (%): 100%

## O=C(/C=C/c1cccc(C(=O)NO)c1)NO [CBHA, N-Hydroxy-3-[3-hydroxyamino-3-oxo-1-propenyl]benzamide, reference compound]
[1]
  CSI: 0.545
[2]
  Enzyme Inhibitory Rate (%): 99%

## Nc1ccccc1NC(=O)c1ccc(CN(CCCN2CCCC2)C(=O)Nc2cccnc2)cn1 [Compound 1-58, N-(2-Aminophenyl)-5-[3-(pyridin-3-yl)-1-[3-(pyrrolidin-1-yl)propyl]ureidomethyl]pyridine-2-carboxylic acid amide]
[1]
  CSI: 0.518
[2]
  Enzyme Inhibitory Rate (%): 98%

## CN(C)CCCN(Cc1ccc(C(=O)Nc2ccccc2N)nc1)C(=O)Nc1nc2ccccc2s1 [Compound 1-30, N-(2-Aminophenyl)-5-[3-(1,3-benzothiazol-2-yl)-1-(3-dimethylaminopropyl)ureidomethyl]pyridine-2-carboxylic acid amide]
[1]
  CSI: 0.564
[2]
  Enzyme Inhibitory Rate (%): 100%

## Nc1ccccc1NC(=O)c1ccc(CN(CCCCCN2CCOCC2)C(=O)NC2CCCC2)cn1 [Compound 1-141, N-(2-Aminophenyl)-5-[3-cyclopentyl-1-[5-(morpholin-4-yl)pentyl]ureidomethyl]pyridine-2-carboxylic acid amide]
[1]
  CSI: 0.515
[2]
  Enzyme Inhibitory Rate (%): 91%

## Nc1ccccc1NC(=O)c1ccc(CN(CCCN2CCOCC2)C(=O)Nc2cccnc2)cn1 [Compound 1-8, N-(2-Aminophenyl)-5-[1-[3-(morpholin-4-yl)propyl]-3-(pyridin-3-yl)ureidomethyl]pyridine-2-carboxylic acid amide]
[1]
  CSI: 0.538
[2]
  Enzyme Inhibitory Rate (%): 96%

## N#Cc1ccc(NC(=O)N(CCCO)Cc2ccc(C(=O)Nc3ccccc3N)nc2)cc1 [Compound 1-24, N-(2-Aminophenyl)-5-[3-(4-cyanophenyl)-1-(3-hydroxypropyl)ureidomethyl]pyridine-2-carboxylic acid amide]
[1]
  CSI: 0.597
[2]
  Enzyme Inhibitory Rate (%): 96%

## CCN(CC)c1ccc(NC(=O)N(CCCN(C)C)Cc2ccc(C(=O)Nc3ccccc3N)nc2)cc1 [Compound 2-3, N-(2-Aminophenyl)-5-[3-(4-diethylaminophenyl)-1-(3-dimethylaminopropyl)ureidomethy]pyridine-2-carboxylic acid amide]
[1]
  CSI: 0.550
[2]
  Enzyme Inhibitory Rate (%): 100%

## CN(C)CCCN(Cc1ccc(C(=O)Nc2ccccc2N)nc1)C(=O)Nc1nc2ccc(F)cc2s1 [Compound 1-44, N-(2-Aminophenyl)-5-[1-(3-dimethylaminopropyl)-3-(6-fluoro-1,3-benzothiazol-2-yl)ureidomethyl]pyridine-2-carboxylic acid amide]
[1]
  CSI: 0.554
[2]
  Enzyme Inhibitory Rate (%): 98%

## CCOC(=O)CCN(Cc1ccc(C(=O)Nc2ccccc2N)nc1)C(=O)Nc1ccc(N(C)C)cc1 [Compound 1-27, N-(2-Aminophenyl)-5-[3-(4-dimethylaminophenyl)-1-(2-ethoxycarbonylethyl)ureidomethyl]pyridine-2-carboxylic acid amide]
[1]
  CSI: 0.624
[2]
  Enzyme Inhibitory Rate (%): 97%

## CN(C)CCCN(Cc1ccc(C(=O)Nc2ccccc2N)nc1)C(=O)Nc1ccc(OC(F)(F)F)cc1 [Compound 1-21, N-(2-Aminophenyl)-5-[1-(3-dimethylaminopropyl)-3-(4-trifluoromethoxyphenyl)ureidomethyl]pyridine-2-carboxylic acid amide]
[1]
  CSI: 0.575
[2]
  Enzyme Inhibitory Rate (%): 98%

## CN1CCN(CCN(Cc2ccc(C(=O)Nc3ccccc3N)nc2)C(=O)Nc2cccc(F)c2)CC1 [Compound 1-63, N-(2-Aminophenyl)-5-[3-(3-fluorophenyl)-1-[2-(4-methylpiperazin-1-yl)ethyl]ureidomethyl]pyridine-2-carboxylic acid amide]
[1]
  CSI: 0.521
[2]
  Enzyme Inhibitory Rate (%): 97%

## C[C@@H](N)[C@H]1CC[C@H](C(=O)Nc2ccncc2)CC1 [Compound Y-27632, reference compound]
[1]
  CSI: 0.543
